Patent publication US7534455B2, “Herbal composition PHY906 and its use in chemotherapy” (Yale University, priority 2000, dated 2009)
Read-outs that look alike come from different tables or passages of the source.

Legend:
[1] = tested on: Colon 38 tumor; experiment: Tumor growth in BDF-1 mice bearing Colon 38 tumor; format: in vivo, mouse; details: CPT-11 treated mice; formulation 1 g/kg, bid, 8 days
Procedure: (§1) Anti-Tumor Studies: Murine Colon 38 (1-2×10^6 cells in 0.1 ml PBS) or human HepG2 cells (1-2×10^6 cells in 0.1 ml PBS) were transplanted subcutaneously into BDF1 or NCr athymic nude mice, respectively. The length and width of the tumors were measured daily with sliding calipers. The tumor weight was estimated according to the following formula (Pizzorno G, Wiegand R, Lentz S, et al., Cancer Res. 52:1660-1665 (1992)): Tumor weight (mg)=length (mm)×width (mm)^2/2.
(§2) After 10 to 14 days, mice (five animals/group) with tumor weights ranging from 150-200 mg were selected for drug studies (Guo X, Lerner-Tung M, Chen H X, et al., Biochem Pharmacol 49:1111-1116 (1995)). Mice were sacrificed when the tumor size reached 10% of body weight. PHY906 was administered orally either alone or with anti-cancer chemotherapeutic agents. The effect of PHY906 on antitumor efficacy and the reduction of toxicity by the agents were evaluated. CPT-11 was given intraperitoneally (i.p.) 30 min after PHY906 administration with the selected dose. The regimen of FU/LV combination therapy was given as follows:
(A) treatment with FU/LV alone: first dose of LV (50 mg/kg, i.p.), one hour later the second dose of LV (50 mg/kg; i.p.), then immediately given FU (100 mg/kg, i.p.) […]
The first day of treatment was defined as day 0. […] Animals were monitored for mortality, weight loss, and tumor size daily.

[2] = Host toxicity (body weight loss, mortality, blood cell counts) in chemotherapy treated BDF-1 mice bearing Colon 38 tumor; format: in vivo
Procedure: as §1, §2
The first day of treatment was defined as day 0. PHY906 was given orally twice a day (10 am and 3 pm) for either 4 or 8 days beginning on day 0. For the control group, mice were administrated a vehicle, either PBS for i.p. or H2O for p.o. (oral administration). Animals were monitored for mortality, weight loss, and tumor size daily.
Blood Cell Counts: Blood (20 μl) was taken from mice on days 0, 3, 6, 9 and 12 with micro-capillary tubes. Blood was then be diluted to 200 μl with normal saline (0.85% Sodium Chloride). WBC, RBC and platelets were counted by a BAKER SYSTEM 9100™ […] (Biochem ImmunoSystems Inc., Allentown, Pa. 18103-9562).
PHY906 was evaluated as a modulator of CPT-11 therapy for toxic side effects in mice inoculated with Colon 38 tumor cells. Based on the previous findings (Example 2), a single bolus dose of 400 mg/kg CPT-11 was selected to study the effect of PHY906 on weight-loss associated with toxicity of CPT-11. To evaluate whether PHY906 impairs the antitumor efficacy of CPT-11, mice were implanted subcutaneously with Colon 38 tumor cells. Ten to 14 days after inoculation, mice were treated with CPT-11 (400 mg/kg, i.p.) in the absence or presence of PHY906, which was given orally twice a day at varying doses (125 mg/kg, 250 mg/kg, and 500 mg/kg). PHY906 treatment was continued at the dose indicated for 8 consecutive days.
Mice were divided into four groups with different treatment regimens: Group (A) treatment with vehicle; Group (B) treatment with a single dose of 400 mg/kg CPT-11 by i.p. injection; Group (C) treatment with PHY906 (500 mg/kg/b.i.d.) alone; or Group (D) treatment with a single dose of 400 mg/kg CPT-11 plus 500 mg/kg/b.i.d. PHY906 for 4 or 8 days. The sequence of each treatment regimen appears in Materials and Methods. As depicted in Table 9, 35 of 35 tumor-bearing mice (100%) from Group A and 15 of 15 mice (100%) from Group C survived treatment with either vehicle or PHY906 alone for 4 or 8 days, indicating no or very low toxicity for PHY906.

[3] = tested on: pancreatic cancer; details: monotherapy; cited from earlier work
[4] = Pharmacokinetics of gemcitabine (dFdC) and dFdU in plasma of PAN02 bearing BDF-1 mice; format: in vivo; details: for AUC, dFdC + PHY906: PHY906 500 mg/kg 30 min before gemcitabine; for AUC, dFdC alone: gemcitabine 600 mg/kg
Procedure: Plasma Handling: The mouse plasma was separated from the blood by centrifugation at 10,000 g at 4° C. for 10 min.
b) Gemcitabine-containing plasma: The plasma (50 μl) was extracted with 200 μl of acetonitrile (ACN) in the presence of 5 μl of 0.1 mM AZT as an internal standard. After centrifugation, the supernatant was dried by a Speedvac, reconstituted with 100 μl of solution containing 2.5% ACN and 97.5% of 15 mM ammonium acetate (pH 5.0).
The resultant analyte was then analyzed by HPLC with UV absorption and/or radioactivity.
To determine, for a future clinical trial, if PHY906 would change the metabolism of gemcitabine, a pharmacokinetics analysis in mice bearing pancreatic cancer was performed. Mice were divided into three sets of 15: gemcitabine only, gemcitabine plus PHY906, and vehicle control. Each mouse in the set was bled twice at two different time points. Plasma was processed as described in Materials and Methods and analyzed by HPLC with radioactivity confirmation of peak identity and quantitation.

[5] = tested on: PAN02 murine pancreatic carcinoma; experiment: Tumor growth in PAN02 murine pancreatic carcinoma model; format: in vivo, mouse; details: C57/BL6 mice; 150 mg/kg
Procedure: Tumor Cells: The human hepatocellular carcinoma HepG2, human PANC-1 pancreatic cancer and mouse Colon 38 colorectal cancer cell lines were purchased from the American Type Culture Collection (Rockville, Md.). […] Small chunk of mouse PAN02 tumor from NCI was suspended in PBS solution as a total volume of 0.8 ml. The cells were implanted into the left flank of mice. Tumor transplantation from mice to mice was performed when the tumor reached 1500-2000 mm^3. Mouse Tumor Model: Tumor cells (5×10^6 cells in 0.1 ml PBS) were transplanted subcutaneously into the left flank of mice. After 14 days, tumor ranging in size from 300-500 mm^3 was selected for drug studies. The length and width of the each tumor was measured with sliding calipers. The tumor size was estimated according to the following formula: Tumor size (mm^3)=length (mm)×width (mm)^2/2. Antitumor Activity of Chemotherapeutic Agents in the Presence or Absence of PHY906: […] The first day of drug treatment was defined as day 1. […] Chemotherapeutic agents were given either intraperitoneally or orally at the dose and schedule indicated. The tumor size, body weight, and mortality of the mice were monitored daily.

For `CN(C)C(=O)C(CCN1CCC(O)(c2ccc(Cl)cc2)CC1)(c1ccccc1)c1ccccc1` [Loperamide], the “Antitumor Effect” value [1] was “No Change”, the “Protecting against body weight loss or enhancing the antitumor effects of CPT-11” value ([2]; CPT-11 treated BDF-1 mice bearing Colon 38) was “completely ineffective” and the “Protection from Body Weight Loss” value ([2]; CPT-11 treated mice, formulation 1 g/kg (dry weight incl. excipient), bid, 8 days) was “No Change”.
In the case of `Nc1ccn([C@@H]2O[C@H](CO)[C@@H](O)C2(F)F)c(=O)n1` [dFdC, 2′-deoxy-2′,2′-difluoro-cytidine], the Overall survival time [3] is listed as 4-6 months, the “Response rate in patients” value [3] is listed as 6-11% and the Cmax ([4]; BDF-1, mouse, plasma, oral, 600 mg/kg, Radioactivity detection, read-out: Cmax, dFdC + PHY906) is listed as 400 µg/mL. For the same compound, the Cmax ([4]; BDF-1, mouse, plasma, oral, 600 mg/kg, Radioactivity detection, read-out: Cmax, dFdC alone) was 360 µg/mL, the Tmax ([4]; BDF-1, mouse, plasma, oral, 600 mg/kg, Radioactivity detection, read-out: Tmax, dFdC alone (converted)) was 15 min and the half-life ([4]; BDF-1, mouse, plasma, oral, 600 mg/kg, Radioactivity detection, read-out: T½, dFdC + PHY906) was 34.2 min. It also gave a half-life ([4]; BDF-1, mouse, plasma, oral, 600 mg/kg, Radioactivity detection, read-out: T½, dFdC alone) of 26.5 min, a Cmax ([4]; BDF-1, mouse, plasma, oral, 600 mg/kg, UV detection, read-out: Cmax, dFdC alone) of 230 µg/mL and a half-life ([4]; BDF-1, mouse, plasma, oral, 600 mg/kg, UV detection, read-out: T½, dFdC alone) of 27 min. The “Tmax, dFdC + PHY906” value ([4]; Radioactivity detection) was 15 min, the “AUC, dFdC + PHY906” value ([4]; Radioactivity detection) was 25.0 mg·min/mL and the “AUC, dFdC alone” value ([4]; Radioactivity detection) was 15.6 mg·min/mL. For the same compound, the “Cmax, dFdC + PHY906” value ([4]; UV detection) was 250 µg/mL, the “Tmax, dFdC + PHY906” value ([4]; UV detection) was 15 min and the “Tmax, dFdC alone” value ([4]; UV detection) was 15 min. The “T½, dFdC + PHY906” value ([4]; UV detection) was 31.0 min, the “AUC, dFdC + PHY906” value ([4]; UV detection) was 15.4 mg·min/mL and the “AUC, dFdC alone” value ([4]; UV detection) was 10.8 mg·min/mL. For the same compound, the “Levels in circulation in the presence or absence of PHY906” value ([4]; plasma) was “not a dramatic difference” and the “Antitumor activity, gemcitabine alone” value [5] was “did not have antitumor activity”.
